Earlier results in patent publication EP3137069B1, “NANOPARTICLE FORMULATION CONTAINING FARNESYLTHIOSALICYLIC ACID (SALIRASIB)” (Pehlivan, Sibel, priority 2014, dated 2015).
In brackets after ≈: the same amount, converted by molar mass.

solubility in organic solvents (organic solvents like ethanol, DMSO and dimethylformamide): 20 mg/mL (≈ 55.8 mM)
solubility in water (water): insoluble
Structure (SMILES): CC(C)=CCCC(C)=CCCC(C)=CCSc1ccccc1C(=O)O [FTA, Farnesylthiosalicylic acid]
